test: recombinant barcode read abundance after kanamycin selection (control-corrected) (log10(CPM+1)); higher = more efficient recombination; sequences stand for … in AGTGCAGAGAAAATCGGCCAGTTTTCTCTGCCTGCAGTCCGCATGCCGT…ATTTATGCAGCGGACTGCCTTTCTCCCAAAGTGATAAACCGGACAGTATCATGGACCGGTTTTCCCGGTAATCCGTATTTGCAAGGTTGGTTTCACT; site = the 11-nt target
In short: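 Recombination efficiency in this pooled E. coli screen uses counts per million of barcodes at recombinant junctions, averaged and corrected against the control. The reported form is log10(CPM+1). Two replicates were plated on chloramphenicol/ampicillin LB agar as control and two on chloramphenicol/ampicillin/kanamycin with 0.1 mM IPTG.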

Row | Sequence | recombinant barcode read abundance (log10)
1 | TCTACCCCCTGGGTTCTAACCTGTTGCTGAG [TCTACCCCTCA_LTGcore_CC_RTGcore_CT] (site TCTACCCCTCA) (LTG core: CC, RTG core: CT) | 0.0931
2 | TCTACCCCTTGGGTTCTAACCTGTTGCTGAG [TCTACCCCTCA_LTGcore_CT_RTGcore_CT] (site TCTACCCCTCA) (LTG core: CT, RTG core: CT) | 0.783
3 | TCTACCCCTTGGGTTCTAACCTGTTGCTGAT [TCTACCCCTCA_LTGcore_CT_RTGcore_AT] (site TCTACCCCTCA) (LTG core: CT, RTG core: AT) | 0.131
4 | TCTACCCCTTGGGTTCTAACCTGTTGCTGGA [TCTACCCCTCA_LTGcore_CT_RTGcore_TC] (site TCTACCCCTCA) (LTG core: CT, RTG core: TC) | 0.0313
5 | TCTACCCCTTGGGTTCTAACCTGTTGCTGTA [TCTACCCCTCA_LTGcore_CT_RTGcore_TA] (site TCTACCCCTCA) (LTG core: CT, RTG core: TA) | 0.124
6 | TCTACCCGCTGGGTTCTAACCTGTTGCTGGC [TCTACCCCTCA_LTGcore_GC_RTGcore_GC] (site TCTACCCCTCA) (LTG core: GC, RTG core: GC) | 0.124
7 | TCTACCCGTTGGGTTCTAACCTGTTGCTGAC [TCTACCCCTCA_LTGcore_GT_RTGcore_GT] (site TCTACCCCTCA) (LTG core: GT, RTG core: GT) | 0.0436
8 | TGATACCAATGGGTTCTAACCTGTTGCGTTT [TGATACCCTAC_LTGcore_AA_RTGcore_AA] (site TGATACCCTAC) (LTG core: AA, RTG core: AA) | 0.0446
9 | TGATACCAGTGGGTTCTAACCTGTTGCGTCT [TGATACCCTAC_LTGcore_AG_RTGcore_AG] (site TGATACCCTAC) (LTG core: AG, RTG core: AG) | 0.256
10 | TGATACCCATGGGTTCTAACCTGTTGCGTTG [TGATACCCTAC_LTGcore_CA_RTGcore_CA] (site TGATACCCTAC) (LTG core: CA, RTG core: CA) | 0.0326
11 | TGATACCCTTGGGTTCTAACCTGTTGCGTAC [TGATACCCTAC_LTGcore_CT_RTGcore_GT] (site TGATACCCTAC) (LTG core: CT, RTG core: GT) | 0.08
12 | TGATACCCTTGGGTTCTAACCTGTTGCGTAG [TGATACCCTAC_LTGcore_CT_RTGcore_CT] (site TGATACCCTAC) (LTG core: CT, RTG core: CT) | 2.73
13 | TGATACCCTTGGGTTCTAACCTGTTGCGTCA [TGATACCCTAC_LTGcore_CT_RTGcore_TG] (site TGATACCCTAC) (LTG core: CT, RTG core: TG) | 0.796
14 | TGATACCCTTGGGTTCTAACCTGTTGCGTTA [TGATACCCTAC_LTGcore_CT_RTGcore_TA] (site TGATACCCTAC) (LTG core: CT, RTG core: TA) | 0.0153
15 | TGATACCGATGGGTTCTAACCTGTTGCGTTC [TGATACCCTAC_LTGcore_GA_RTGcore_GA] (site TGATACCCTAC) (LTG core: GA, RTG core: GA) | 0.269
16 | TGATACCGGTGGGTTCTAACCTGTTGCGTAG [TGATACCCTAC_LTGcore_GG_RTGcore_CT] (site TGATACCCTAC) (LTG core: GG, RTG core: CT) | 0.108
17 | TGATACCTGTGGGTTCTAACCTGTTGCGTCA [TGATACCCTAC_LTGcore_TG_RTGcore_TG] (site TGATACCCTAC) (LTG core: TG, RTG core: TG) | 0.256

Row | Sequence | recombinant barcode read abundance (log10)
18 | TGTATTCAGTGGGTTCTAACCTGTTGCCTCT [TGTATTCCTAG_LTGcore_AG_RTGcore_AG] (site TGTATTCCTAG) (LTG core: AG, RTG core: AG) | 0.00767
19 | TGTATTCATTGGGTTCTAACCTGTTGCCTAG [TGTATTCCTAG_LTGcore_AT_RTGcore_CT] (site TGTATTCCTAG) (LTG core: AT, RTG core: CT) | 0.0853
20 | TGTATTCCATGGGTTCTAACCTGTTGCCTAG [TGTATTCCTAG_LTGcore_CA_RTGcore_CT] (site TGTATTCCTAG) (LTG core: CA, RTG core: CT) | 0.0466
21 | TGTATTCCTTGGGTTCTAACCTGTTGCCTAG [TGTATTCCTAG_LTGcore_CT_RTGcore_CT] (site TGTATTCCTAG) (LTG core: CT, RTG core: CT) | 0.129
22 | TGTATTCCTTGGGTTCTAACCTGTTGCCTTA [TGTATTCCTAG_LTGcore_CT_RTGcore_TA] (site TGTATTCCTAG) (LTG core: CT, RTG core: TA) | 0.0748
23 | TGTATTCGATGGGTTCTAACCTGTTGCCTAG [TGTATTCCTAG_LTGcore_GA_RTGcore_CT] (site TGTATTCCTAG) (LTG core: GA, RTG core: CT) | 0.0114
24 | TGTATTCGTTGGGTTCTAACCTGTTGCCTAG [TGTATTCCTAG_LTGcore_GT_RTGcore_CT] (site TGTATTCCTAG) (LTG core: GT, RTG core: CT) | 0.0893
25 | TTATAAAACTGGGTTCTAACCTGTTGCCTGT [TTATAAACTAG_LTGcore_AC_RTGcore_AC] (site TTATAAACTAG) (LTG core: AC, RTG core: AC) | 0.0452
26 | TTATAAAAGTGGGTTCTAACCTGTTGCCTCT [TTATAAACTAG_LTGcore_AG_RTGcore_AG] (site TTATAAACTAG) (LTG core: AG, RTG core: AG) | 0.0267
27 | TTATAAACGTGGGTTCTAACCTGTTGCCTCG [TTATAAACTAG_LTGcore_CG_RTGcore_CG] (site TTATAAACTAG) (LTG core: CG, RTG core: CG) | 0.193
28 | TTATAAACTTGGGTTCTAACCTGTTGCCTCA [TTATAAACTAG_LTGcore_CT_RTGcore_TG] (site TTATAAACTAG) (LTG core: CT, RTG core: TG) | 0.402
29 | TTATAAACTTGGGTTCTAACCTGTTGCCTCT [TTATAAACTAG_LTGcore_CT_RTGcore_AG] (site TTATAAACTAG) (LTG core: CT, RTG core: AG) | 0.0489
30 | TTATAAACTTGGGTTCTAACCTGTTGCCTGT [TTATAAACTAG_LTGcore_CT_RTGcore_AC] (site TTATAAACTAG) (LTG core: CT, RTG core: AC) | 0.0449
31 | TTATAAACTTGGGTTCTAACCTGTTGCCTTA [TTATAAACTAG_LTGcore_CT_RTGcore_TA] (site TTATAAACTAG) (LTG core: CT, RTG core: TA) | 0.076
32 | TTATAAAGCTGGGTTCTAACCTGTTGCCTGC [TTATAAACTAG_LTGcore_GC_RTGcore_GC] (site TTATAAACTAG) (LTG core: GC, RTG core: GC) | 0
33 | TTATAAATCTGGGTTCTAACCTGTTGCCTAG [TTATAAACTAG_LTGcore_TC_RTGcore_CT] (site TTATAAACTAG) (LTG core: TC, RTG core: CT) | 0.235
34 | TTATAAATTTGGGTTCTAACCTGTTGCCTAA [TTATAAACTAG_LTGcore_TT_RTGcore_TT] (site TTATAAACTAG) (LTG core: TT, RTG core: TT) | 0.0515

— the supplement of paper PMC11208160
